Test results from patent US20090169538A1, “Methods of Treating or Preventing Tissue Damage Caused by Increased Blood Flow” (REGENERX BIOPHARMACEUTICALS, INC., priority 2006, published 2009).

Key:
[1] = molecular target: T1, integrin linked kinase (ILK) (Homo sapiens, UniProt Q13418); assay: coimmunoprecipitation with ILK; type: binding
T1 construct: expressed in transfected cells; host or cells: Cos and 10T1/2 cells
T1 sequence (Q13418 1-452): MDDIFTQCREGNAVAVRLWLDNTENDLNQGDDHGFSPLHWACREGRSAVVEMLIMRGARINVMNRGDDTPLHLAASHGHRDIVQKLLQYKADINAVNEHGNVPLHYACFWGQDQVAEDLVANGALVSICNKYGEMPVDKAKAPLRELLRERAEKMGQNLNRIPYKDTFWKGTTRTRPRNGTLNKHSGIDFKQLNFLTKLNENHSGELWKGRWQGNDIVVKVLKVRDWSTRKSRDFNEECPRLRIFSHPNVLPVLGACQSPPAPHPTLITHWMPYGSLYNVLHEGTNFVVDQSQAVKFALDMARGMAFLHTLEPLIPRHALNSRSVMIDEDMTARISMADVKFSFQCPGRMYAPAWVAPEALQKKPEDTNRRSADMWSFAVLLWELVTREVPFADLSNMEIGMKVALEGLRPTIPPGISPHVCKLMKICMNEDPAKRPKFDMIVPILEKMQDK
Excerpt: To investigate the potential mechanisms through which thymosin β4 might be influencing cell migration and survival events, thymosin β4 interacting proteins were searched. The amino-terminus of […] was fused with affi-gel beads resulting in exposure of the carboxy-terminus that allowed identification of previously unknown interacting proteins but prohibited association with actin. An E9.5-12.5 mouse heart T7 phage cDNA library was synthesized and screened by phage display and thymosin β4-interacting clones were enriched and confirmed by ELISA. PINCH, a LIM domain protein, was most consistently isolated in this screen and interacted with thymosin β4 in the absence of actin (ELISA). PINCH and integrin linked kinase (ILK) interact directly with one another and indirectly with the actin cytoskeleton as part of a larger complex involved in cell-extracellular matrix interactions known as the focal adhesion complex. PINCH and ILK are required for cell motility and for cell survival, in part by promoting phosphorylation of the serine-threonine kinase Akt/protein kinase B, a central kinase in survival and growth signaling pathways. […] The PINCH interaction with thymosin β4 mapped to the fourth and fifth LIM domains of PINCH while the amino terminal ankryin domain of ILK was sufficient for thymosin β4 interaction. […]

[2] = tested on: primary rat neonatal cardiomyocytes; assay: primary neonatal cardiomyocytes cultured on laminin-coated glass; type: cell-based
Protocol: To test the response of post-natal cardiomyocytes, primary rat neonatal cardiomyocytes were cultured on laminin-coated glass and treated the cells with phosphate buffered saline (PBS) or thymosin β4. […] In addition to thymosin β4's effects on myocardial cell migration, a similar effect was observed on endothelial migration in the embryonic heart explant assay.
Primary culture of neonatal cardiomyocytes typically survived for approximately one to two weeks with some cells beating up to two weeks when grown on laminin-coated slides in our laboratory. […] In addition, the rate of beating was consistently faster in thymosin β4-treated neonatal cardiomyocytes (95 vs. 50 beats per minute, p<0.02), indicating either a change in cell-cell communication or more vigorous cardiomyocytes.

myocardial infarction = myocardial infarction by coronary artery ligation, echocardiography and histology; type: in vivo, mice
Protocol: Because of thymosin β4's effects on survival and migration of cardiomyocytes cultured in vitro and phosphorylation of Akt, it was tested whether thymosin β4 might aid in cardiac repair in vivo after myocardial damage. Myocardial infarctions in fifty-eight adult mice were created by coronary artery ligation and treated half with systemic, intracardiac, or systemic plus intracardiac thymosin β4 immediately after ligation and the other half with PBS. Intracardiac injections were done with collagen (control) or collagen mixed with thymosin β4. All forty-five mice that survived two weeks later were interrogated for cardiac function by random-blind ultrasonagraphy at 2 and 4 weeks after infarction by multiple measurements of cardiac contraction. […] Control cardiac injections were performed with the same collagen vehicle making it unlikely that an endogenous reaction to the injection contributed to the cardiac recovery.
To determine the manner in which thymosin β4 improved cardiac function, multiple serial histologic sections of hearts treated with or without thymosin β4 were examined. […] TUNEL positive cells that were also myocytes were rare in the thymosin β4 group but abundant in the control hearts. […] Thus, the decreased scar volume and preserved function of thymosin β4 treated mice were likely due to early preservation of myocardium after infarction through thymosin β4's effects on survival of cardiomyocytes.
Embryonic or adult cardiac tissue was embedded in paraffin and sections used for immunohistochemistry. […] Adult hearts were sectioned at ten equivalent levels from the base of the heart to the apex. Serial sections were used for trichrome sections and reaction with sarcomeric a-actinin, c-kit, Sca-1, Abcg2, and BrdU antibodies and for TUNEL assay (Intergen Company # S7111).
Myocardial infarction was produced in fifty-eight male C57BL/6J mice at 16 weeks of age (25-30 g) by ligation of the left anterior descending coronary artery as previously described. Twenty-nine of the ligated mice received thymosin β4 treatment immediately following ligation and the remaining twenty-nine received PBS injections. Treatment was given intracardiac with thymosin β4 (200 ng in 10 ul collagen) or with 10 ul of collagen; intraperitoneally with thymosin β4 (150 μg in 300 μl PBS) or with […]; or by both intracardiac and intraperitoneal injections. Intraperitoneal injections were given every three days until mice were sacrificed. Doses were based on previous studies of thymosin β4 biodistribution. Hearts were removed, weighed and fixed for histologic sectioning. Additional mice were operated on in a similar fashion for studies 0.5, 1, 3, 6 and 11 days after ligation.
Echocardiograms to assess systolic function were performed using M-mode and 2-dimensional measurements as described previously. The measurements represented the average of six selected cardiac cycles from at least two separate scans performed in random-blind fashion with papillary muscles used as a point of reference for consistency in level of scan. End diastole was defined as the maximal left ventricle (LV) diastolic dimension and end systole was defined as the peak of posterior wall motion. Single outliers in each group were omitted for statistical analysis. Fractional shortening (FS), a surrogate of systolic function, was calculated from LV dimensions as follows: FS=EDD−ESD/EDD×100%. Ejection fraction (EF) was calculated from two-dimensional images. EDD, end diastolic dimension; ESD, end systolic dimension.
Scar volume was calculated using six sections through the heart of each mouse using Openlab 3.03 software (Improvision) similar to previously described. Percent area of collagen deposition was measured on each section in blinded fashion and averaged for each mouse.

[3] = four weeks after infarction, versus control

thymosin β4
strength of interaction of ILK with thymosin β4 ([1]; common complex immunoprecipitation): weaker than with PINCH | co-precipitation with ILK ([1]; plasmids transfected in cultured cells): co-precipitated | migrational distance of neonatal cardiomyocytes ([2]; compared to PBS control, p<0.05): significantly increased | survival, rhythmically contracting myocytes visible ([2]; laminin-coated slides, untreated cultures approximately one to two weeks): up to 28 days | rate of beating ([2]; vs. 50 in control, p<0.02): 95 beats per minute | cardiac dilation after infarction (EDD and ESD) (myocardial infarction; EDD and ESD significantly higher in control group): decreased cardiac dilation | degree of improvement, systemic intraperitoneal versus local intracardiac administration (myocardial infarction; echocardiography): not statistically different | mean fractional shortening of left ventricle (myocardial infarction; four weeks after infarction, n=23, 95% confidence interval, p<0.0001, control 23.2): 37.2+/−1.8% | mean ejection fraction (myocardial infarction; four weeks after infarction, n=23, 95% confidence interval, p<0.0001, control 28.2): 57.7+/−3.2% | improvement in cardiac fractional shortening (myocardial infarction; [3]): greater than 60% | improvement in ejection fraction (myocardial infarction; [3]): > 100% | scar volume (myocardial infarction; six levels of sections through left ventricle, subset of mice, p<0.05): significant reduction | left ventricle fractional shortening (myocardial infarction; three days after infarction, intracardiac treatment, n=4, 95% confidence interval, p<0.02, controls 28.8): 39.2+/−2.34% | ejection fraction (myocardial infarction; three days after infarction, intracardiac treatment, p<0.02, controls 44.7): 64.2+/−6.69% | size of scar (trichrome stain) (myocardial infarction; three levels of section, all treated mice): reduced | cell death by TUNEL assay in cardiomyocytes (myocardial infarction; twenty-four hours after ligation): striking decrease
